Laboratory results: the supplement of paper PMC10307832

Experiments:
Experiment in all cases: relative viability (nuclei count vs DMSO), 5 days (fraction); higher = more cells survive
[1] = compound: COc1cc2ncn(-c3cc(OCc4ccccc4C(F)(F)F)c(C(N)=O)s3)c2cc1OC + C[C@@H](Oc1cc(-c2cnn(C3CCNCC3)c2)cnc1N)c1c(Cl)ccc(F)c1Cl [Crizotinib] (partner 1 µM)
Method in brief: (§1)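 Lung cancer cell lines were pin-tool dosed in 1536-well plates on the day after seeding, with either a lone drug or a fixed anchor-drug dose plus five library-drug doses (not always all listed) in √10 steps. Nuclei were counted on 4× images after 5 days. Relative viability is the ratio of treated-well to vehicle-well nuclei counts, with each value a median of duplicate plates.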

[2] = compound: COc1cc2ncn(-c3cc(OCc4ccccc4C(F)(F)F)c(C(N)=O)s3)c2cc1OC + N=C(N)NC(=N)NCCc1ccccc1 [Phenformin] (partner 250 µM)
Method in brief: as §1

[3] = compound: COc1cc2ncn(-c3cc(OCc4ccccc4C(F)(F)F)c(C(N)=O)s3)c2cc1OC + CC1(C)CCC(c2ccc(Cl)cc2)=C(CN2CCN(c3ccc(C(=O)NS(=O)(=O)c4ccc(N[C@H](CCN5CCOCC5)CSc5ccccc5)c(S(=O)(=O)C(F)(F)F)c4)cc3)CC2)C1 [Navitoclax] (partner 0.5 µM)
Method in brief: as §1

[4] = compound: COc1cc2ncn(-c3cc(OCc4ccccc4C(F)(F)F)c(C(N)=O)s3)c2cc1OC + Nc1ncn([C@H]2C[C@H](O)[C@@H](CO)O2)c(=O)n1 [Decitabine] (partner 2 µM)
Method in brief: as §1

Cell Line	relative viability ([1]; first compound 0.05 µM)	relative viability ([1]; first compound 0.1581 µM)	relative viability ([1]; first compound 0.5 µM)	relative viability ([1]; first compound 1.581 µM)	relative viability ([1]; first compound 5 µM)	relative viability ([2]; first compound 0.05 µM)	relative viability ([2]; first compound 0.1581 µM)	relative viability ([2]; first compound 0.5 µM)	relative viability ([2]; first compound 1.581 µM)	relative viability ([2]; first compound 5 µM)	relative viability ([3]; first compound 0.05 µM)	relative viability ([3]; first compound 0.1581 µM)	relative viability ([3]; first compound 0.5 µM)	relative viability ([3]; first compound 1.581 µM)	relative viability ([3]; first compound 5 µM)	relative viability ([4]; first compound 0.05 µM)	relative viability ([4]; first compound 0.1581 µM)	relative viability ([4]; first compound 0.5 µM)	relative viability ([4]; first compound 1.581 µM)	relative viability ([4]; first compound 5 µM)
201T	1.05	1.08	0.967	0.878	0.293	0.482	0.252	0.413	0.242	0.205	1.26	1.2	1.19	0.902	0.326	0.866	0.877	0.851	0.562	0.251
A549	0.864	0.612	0.104	0.0479	0.102	0.152	0.145	0.0554	0.0361	0.0267	1.25	1.19	0.294	0.0413	0.0332	0.253	0.237	0.212	0.0645	0.0614
A-427	0.917	0.826	0.587	0.163	0.124	0.336	0.277	0.25	0.151	0.0968	1.06	0.991	0.79	0.331	0.173	0.619	0.6	0.498	0.399	0.205
ABC-1	1.34	0.988	0.875	0.152	0.291	0.239	0.255	0.226	0.172	0.181	–	–	–	–	–	1.21	1.18	0.761	0.513	0.357
BEN	0.814	0.839	0.687	0.268	0.526	0.262	0.28	0.217	0.218	0.206	0.0682	0.0597	0.0733	0.0523	0.0519	0.816	0.828	0.526	0.403	0.408
CAL-12T	0.705	0.377	0.207	0.126	0.124	0.524	0.339	0.21	0.153	0.138	1.09	1.11	0.573	0.231	0.148	–	–	–	–	–
COR-L23	0.667	0.671	0.3	0.118	0.12	0.464	0.385	0.201	0.104	0.0889	1	0.897	0.38	0.0788	0.091	0.435	0.394	0.305	0.145	0.159
COR-L 105	0.978	0.831	0.658	0.215	0.264	0.426	0.441	0.353	0.29	0.221	0.837	0.779	0.509	0.259	0.24	0.65	0.601	0.572	0.438	0.278
Calu-6	0.778	0.755	0.288	0.107	0.106	–	–	–	–	–	0.693	0.513	0.136	0.0798	0.0903	–	–	–	–	–
ChaGo-K-1	1.07	0.944	0.831	0.434	0.38	0.638	0.476	0.49	0.163	0.128	0.964	0.535	0.939	0.378	0.273	0.567	0.504	0.43	0.255	0.162
EBC-1	0.19	0.204	0.17	0.169	0.14	–	–	–	–	–	0.36	0.283	0.123	0.119	0.153	–	–	–	–	–
EKVX	1.04	1.04	0.731	0.225	0.563	0.236	0.151	0.188	–	0.197	0.96	0.814	0.91	0.35	0.486	0.324	0.381	0.273	0.175	0.204
EMC-BAC-2	0.893	0.855	0.789	0.439	0.154	0.545	0.528	0.465	0.215	0.142	1.2	1.14	1.07	0.766	0.178	1.12	1.05	0.963	0.504	0.253
EPLC-272H	0.86	0.709	0.323	0.0912	0.134	–	0.323	0.151	0.135	0.15	1.12	0.982	0.255	0.0998	0.0968	0.356	0.362	0.168	0.113	0.133
H3255	0.777	0.981	0.574	0.238	0.229	0.365	0.37	0.282	–	0.304	0.558	0.314	0.363	0.125	0.101	0.518	0.674	0.625	0.312	0.294
HARA	1.18	0.981	0.786	0.275	0.119	0.469	0.395	0.364	0.0656	0.0542	1.18	1.06	0.531	0.26	0.0692	0.383	–	0.367	0.202	0.118
HCC-15	0.855	0.716	0.461	0.152	0.11	0.486	0.383	0.204	0.122	0.0883	0.695	0.641	0.316	0.104	0.0943	0.592	0.581	0.248	0.176	0.119

Cell Line	relative viability ([1]; first compound 0.05 µM)	relative viability ([1]; first compound 0.1581 µM)	relative viability ([1]; first compound 0.5 µM)	relative viability ([1]; first compound 1.581 µM)	relative viability ([1]; first compound 5 µM)	relative viability ([2]; first compound 0.05 µM)	relative viability ([2]; first compound 0.1581 µM)	relative viability ([2]; first compound 0.5 µM)	relative viability ([2]; first compound 1.581 µM)	relative viability ([2]; first compound 5 µM)	relative viability ([3]; first compound 0.05 µM)	relative viability ([3]; first compound 0.1581 µM)	relative viability ([3]; first compound 0.5 µM)	relative viability ([3]; first compound 1.581 µM)	relative viability ([3]; first compound 5 µM)	relative viability ([4]; first compound 0.05 µM)	relative viability ([4]; first compound 0.1581 µM)	relative viability ([4]; first compound 0.5 µM)	relative viability ([4]; first compound 1.581 µM)	relative viability ([4]; first compound 5 µM)
HCC-44	0.818	0.815	0.503	0.123	0.104	0.193	0.164	0.106	0.0862	0.118	1	0.913	0.187	0.121	0.0869	0.987	0.984	0.906	0.433	0.258
HCC-78	0.314	0.345	0.245	0.257	0.257	0.851	0.837	0.495	0.446	0.22	0.752	0.773	0.498	0.51	0.63	0.688	0.652	0.671	0.473	0.446
IA-LM	0.717	0.395	0.198	0.0759	0.0777	–	–	–	–	–	0.89	0.411	0.0188	0.0121	0.0246	–	–	–	–	–
LCLC-103H	0.999	1.11	0.851	0.523	0.267	0.386	0.397	0.279	0.178	0.127	–	–	–	–	–	0.729	0.785	0.657	0.355	0.257
NCI-H358	0.481	0.575	0.164	0.132	0.213	0.3	0.321	0.162	0.0752	0.0692	–	–	–	–	–	0.228	0.179	0.219	0.115	0.138
NCI-H522	–	–	–	–	–	0.741	0.581	0.612	0.484	0.404	–	–	–	–	–	0.574	0.628	0.54	0.618	0.36
NCI-H650	0.714	0.684	0.4	0.15	0.289	0.511	0.458	0.374	0.171	0.205	–	–	–	–	–	0.329	0.309	0.261	0.175	0.236
NCI-H661	0.869	0.937	0.85	0.572	0.855	0.28	0.249	0.2	0.21	0.18	–	–	–	–	–	0.566	0.496	0.363	0.277	0.237
NCI-H1299	0.982	0.939	0.572	0.305	0.329	–	–	–	–	–	1.06	1.09	0.833	0.232	0.238	–	–	–	–	–
NCI-H1395	–	–	–	–	–	0.459	0.438	0.386	0.335	0.295	1.17	1.17	0.611	0.447	0.384	0.736	0.753	0.596	0.373	0.342
NCI-H1563	0.832	0.968	0.872	0.661	0.582	0.709	0.628	0.65	0.528	0.452	–	–	–	–	–	–	–	–	–	–
NCI-H1648	–	–	–	–	–	–	–	–	–	–	–	–	–	–	–	0.473	0.602	0.345	0.235	0.225
NCI-H1703	0.962	0.813	0.144	0.117	0.206	–	–	–	–	–	1.38	1.28	0.509	0.124	0.0953	–	–	–	–	–
NCI-H1793	–	–	–	–	–	0.367	0.413	0.182	0.17	0.136	0.928	0.544	0.187	0.221	0.139	0.244	0.469	0.408	0.223	0.137
NCI-H2228	0.542	0.554	0.31	0.207	0.308	0.305	0.337	0.155	0.121	0.144	1.05	1.3	0.167	0.0999	0.105	–	–	–	–	–
NCI-H2342	–	–	–	–	–	0.631	0.652	0.457	0.379	0.299	–	–	–	–	–	0.628	0.701	0.626	0.569	0.528
SW 900	–	–	–	–	–	0.538	0.503	0.53	0.33	0.14	–	–	–	–	–	0.482	0.447	0.425	0.354	0.256
